From publication PMC8199500, “Novel Bis- and Mono-Pyrrolo[2,3-d]pyrimidine and Purine Derivatives: Synthesis, Computational Analysis and Antiproliferative Evaluation” (Molecules, 2021)

Key:
[1] = system: cervical carcinoma (HeLa) cells; assay: MTT proliferation assay, HeLa cells; format: cell-based, human; settings: 72 h incubation
Method: (§1) Human carcinoma cell lines A549 (lung carcinoma), HeLa (cervical carcinoma), SW620 (colorectal adenocarcinoma, metastatic) and CFPAC-1 (pancreatic cancer, derived from metastatic: liver), and normal human foreskin (HFF-1) fibroblasts were obtained from the American Type Culture Collection (ATCC, Manassas, VA, USA). Cells were cultured in humidified atmosphere at 37 °C with 5% CO2. As growth medium, Dulbecco′s modified Eagle medium (DMEM) was used with the addition of fetal bovine serum (10%), L-glutamine (2 mM) and antibiotics: streptomycin ([…]) and penicillin (100 U/mL).
(§2) Cells were seeded onto 96-well microtiter plates at a seeding density of 3000 cells/well for carcinoma cell lines, and 5000 cells/well for normal human fibroblasts. The next day, cells were treated with test agents in five different concentrations (0.01–100 µM) and further incubated for 72 h. […] Following 72 h incubation, the MTT assay was performed and measured absorbances were transformed into percentage of cell growth as described previously. Results were obtained from three independent experiments. IC50 values were calculated using linear regression analysis and results were statistically analyzed by ANOVA, Tukey post-hoc test (p < 0.05).

[2] = system: lung adenocarcinoma (A549) cells; assay: MTT proliferation assay, A549 cells; format: cell-based, human
Method: as §1, §2

[3] = system: metastatic colorectal adenocarcinoma (SW620) cells; assay: MTT proliferation assay, SW620 cells; format: cell-based, human
Method: as §1, §2

[4] = system: ductal pancreatic adenocarcinoma (CFPAC-1) cells; assay: MTT proliferation assay, CFPAC-1 cells; format: cell-based, human
Method: as §1, §2

[5] = system: normal human foreskin fibroblasts (HFF-1); assay: MTT proliferation assay, normal fibroblasts HFF-1; format: cell-based; settings: 72 h incubation
Method: as §1, §2

[6] = Homo sapiens, A549, 72 h incubation
[7] = Homo sapiens, SW-620, 72 h incubation
[8] = Homo sapiens, CFPAC-1, 72 h incubation

Molecule	IC50 [1] [µM]	IC50 ([2]; 72 h incubation) [µM]	IC50 ([3]; 72 h incubation) [µM]	IC50 ([4]; 72 h incubation) [µM]	IC50 ([1]; Homo sapiens, HeLa) [µM]	IC50 [2, 6] [µM]	IC50 [3, 7] [µM]	IC50 [4, 8] [µM]	IC50 [5] [µM]	melting point [°C]
6-(piperidin-1-yl)-9-{2-[4-(((4′-(prop-2-yn-1-yloxy)-[1,1′-biphenyl]-4-yl)oxy)methyl)-1H-1,2,3-triazol-1-yl]ethyl}-9H-purine [10f]	8.1 ± 2.2	62.1 ± 2.3	98 ± 1.3	6.5 ± 0.78						
Clc1ncnc2c1ccn2CCn1cc(COc2ccc(OCc3cn(CCn4ccc5c(Cl)ncnc54)nn3)cc2)nn1 [5a, 1,4-Bis{[1-(2-(4-chloro-7H-pyrrolo[2,3-d]pyrimidin-7-yl)ethyl)-1H-1,2,3-triazol-4-yl]methoxy}benzene]					77 ± 2.6	> 100	> 100	> 100		
Clc1ncnc2c1ccn2CCn1cc(COc2ccc(-c3ccc(OCc4cn(CCn5ccc6c(Cl)ncnc65)nn4)cc3)cc2)nn1 [5b, 4,4′-Bis{[1-(2-(4-chloro-7H-pyrrolo[2,3-d]pyrimidin-7-yl)ethyl)-1H-1,2,3-triazol-4-yl]-methoxy}-1,1′-biphenyl]					> 100	6.3 ± 1.2	> 100	> 100	0.13	
Clc1ncnc2c1ccn2CCn1cc(CCCc2cn(CCn3ccc4c(Cl)ncnc43)nn2)nn1 [5c, 1,3-Bis{1-[2-(4-chloro-7H-pyrrolo[2,3-d]pyrimidin-7-yl)ethyl]-1H-1,2,3-triazol-4-yl}propane]					99.7 ± 5.9	99.6 ± 1.5	> 100	74.9 ± 3.8		
C#CCCCc1cn(CCn2ccc3c(Cl)ncnc32)nn1 [5g, 4-chloro-7-{2-[4-(pent-4-yn-1-yl)-1H-1,2,3-triazol-1-yl]ethyl}-7H-pyrrolo[2,3-d]pyrimidine]					75 ± 3.5	> 100	80.5 ± 14.9	19.5 ± 4		
c1nc(N2CCCCC2)c2ccn(CCn3cc(COc4ccc(OCc5cn(CCn6ccc7c(N8CCCCC8)ncnc76)nn5)cc4)nn3)c2n1 [6a, 1,4-Bis{[1-(2-(4-(piperidin-1-yl)-7H-pyrrolo[2,3-d]pyrimidin-7-yl)ethyl)-1H-1,2,3-triazol-4-yl]methoxy}benzene]					> 100	> 100	> 100	> 100		185 to 187
c1nc(N2CCCCC2)c2ccn(CCn3cc(COc4ccc(-c5ccc(OCc6cn(CCn7ccc8c(N9CCCCC9)ncnc87)nn6)cc5)cc4)nn3)c2n1 [6b, 4,4′-Bis{[1-(2-(4-(piperidin-1-yl)-7H-pyrrolo[2,3-d]pyrimidin-7-yl)ethyl)-1H-1,2,3-triazol-4-yl]methoxy}-1,1′-biphenyl]					68.5 ± 3.2	53.9 ± 2.1	24.7 ± 8.7	17.4 ± 6.3		137 to 139
c1nc(N2CCCC2)c2ccn(CCn3cc(COc4ccc(-c5ccc(OCc6cn(CCn7ccc8c(N9CCCC9)ncnc87)nn6)cc5)cc4)nn3)c2n1 [7b, 4,4′-Bis{[1-(2-(4-(pyrrolidin-1-yl)-7H-pyrrolo[2,3-d]pyrimidin-7-yl)ethyl)-1H-1,2,3-triazol-4-yl]methoxy}-1,1′-biphenyl]					54.6 ± 5.2	69 ± 1.2	> 100	77.4 ± 3.5		187 to 189
c1nc(N2CCCC2)c2ccn(CCn3cc(CCCc4cn(CCn5ccc6c(N7CCCC7)ncnc65)nn4)nn3)c2n1 [7c, 1,3-Bis{1-[2-(4-(pyrrolidin-1-yl)-7H-pyrrolo[2,3-d]pyrimidin-7-yl)ethyl]-1H-1,2,3-triazol-4-yl}propane]					80 ± 1.5	> 100	> 100	65.3 ± 5.7		170 to 172
c1nc(N2CCCCC2)c2ncn(CCn3cc(COc4ccc(OCc5cn(CCn6cnc7c(N8CCCCC8)ncnc76)nn5)cc4)nn3)c2n1 [9a, 1,4-Bis{[1-(2-(6-(piperidin-1-yl)-9H-purin-9-yl)ethyl)-1H-1,2,3-triazol-4-yl]methoxy}benzene]					16.2 ± 0.05	53.5 ± 8	43.5 ± 4.4	9.1 ± 1.3	0.76	
c1nc(N2CCCCC2)c2ncn(CCn3cc(COc4ccc(-c5ccc(OCc6cn(CCn7cnc8c(N9CCCCC9)ncnc87)nn6)cc5)cc4)nn3)c2n1 [9b, 4,4′-Bis((1-(2-(6-(piperidin-1-yl)-9H-purin-9-yl)ethyl)-1H-1,2,3-triazol-4-yl)methoxy)-1,1′-biphenyl]					3.8 ± 0.81	12.3 ± 3.4	5.2 ± 2.2	8.1 ± 1.3	0.79	
c1nc(N2CCCCC2)c2ncn(CCn3cc(CCCc4cn(CCn5cnc6c(N7CCCCC7)ncnc65)nn4)nn3)c2n1 [9c, 1,3-Bis{1-[2-(6-(piperidin-1-yl)-9H-purin-9-yl)ethyl]-1H-1,2,3-triazol-4-yl}propane]					41.2 ± 0.99	> 100	> 100	53.9 ± 3.4		
C#CCOc1ccc(OCc2cn(CCn3cnc4c(N5CCCCC5)ncnc43)nn2)cc1 [9e, 6-(piperidin-1-yl)-9-{2-[4-((4-(prop-2-yn-1-yloxy)phenoxy)methyl)-1H-1,2,3-triazol-1-yl]ethyl}-9H-purine]					17.1 ± 1.3	58.7 ± 10.2	35.7 ± 0.79	23.4 ± 4.2		233 to 236
C#CCCCc1cn(CCn2cnc3c(N4CCCCC4)ncnc32)nn1 [9g, 9-{2-[4-(pent-4-yn-1-yl)-1H-1,2,3-triazol-1-yl]ethyl}-6-(piperidin-1-yl)-9H-purine]					72.2 ± 9	> 100	> 100	75.2 ± 12.2		
c1nc(N2CCCC2)c2ncn(CCn3cc(COc4ccc(OCc5cn(CCn6cnc7c(N8CCCC8)ncnc76)nn5)cc4)nn3)c2n1 [10a, 1,4-Bis{[1-(2-(6-(pyrrolidin-1-yl)-9H-purin-9-yl)ethyl)-1H-1,2,3-triazol-4-yl]methoxy}benzene]					60.6 ± 5.9	95 ± 3.2	98.3 ± 7.4	48.5 ± 1.6		
Nc1ncnc2c1ncn2CCn1cc(COc2ccc(OCc3cn(CCn4cnc5c(N)ncnc54)nn3)cc2)nn1 [11a, 1,4-Bis{[1-(2-(6-amino-9H-purin-9-yl)ethyl)-1H-1,2,3-triazol-4-yl]methoxy}benzene]					> 100	> 100	> 100	> 100		
C#CCOc1ccc(OCc2cn(CCn3cnc4c(N)ncnc43)nn2)cc1 [11e, 6-amino-9-{2-[4-((4-(prop-2-yn-1-yloxy)phenoxy)methyl)-1H-1,2,3-triazol-1-yl]ethyl}-9H-purine]					> 100	> 100	> 100	> 100		> 280
C#CCCCc1cn(CCn2cnc3c(N)ncnc32)nn1 [11g, 6-Amino-9-{2-[4-(pent-4-yn-1-yl)-1H-1,2,3-triazol-1-yl]ethyl}-9H-purine]					> 100	> 100	> 100	> 100		226 to 228
C#CCOCc1cn(CCn2cnc3c(N)ncnc32)nn1 [11h, 6-amino-9-{2-[4-((prop-2-yn-1-yloxy)methyl)-1H-1,2,3-triazol-1-yl]ethyl}-9H-purine]					> 100	> 100	> 100	> 100		191 to 193
{1-[2-(4-(Pyrrolidin-1-yl)-7H-pyrrolo[2,3-d]pyrimidin-7-yl)ethyl]-1H-1,2,3-triazol-4-yl}methyl ether [7d]	> 100	> 100	> 100	> 100						
{1-[2-(4-Chloro-7H-pyrrolo[2,3-d]pyrimidin-7-yl)ethyl]-1H-1,2,3-triazol-4-yl}methyl ether [5d]	> 100	> 100	53.5 ± 4.8	36.5 ± 3.9						
{1-[2-(6-(Piperidin-1-yl)-9H-purin-9-yl)ethyl]-1H-1,2,3-triazol-4-yl}methyl ether [9d]	34.7 ± 12.1	73.1 ± 7.7	66.1 ± 3	56.8 ± 2.9						
{1-[2-(6-(Piperidin-1-yl)-9H-purin-9-yl)ethyl]-1H-1,2,3-triazol-4-yl}methyl ether [10d]	66.9 ± 11.2	87.3 ± 4.4	63.4 ± 3.6	52.5 ± 4.6						
{1-[2-(6-Amino-9H-purin-9-yl)ethyl]-1H-1,2,3-triazol-4-yl}methyl ether [11d]	> 100	> 100	> 100	> 100						
